Results from paper PMC4249827, “A Novel CMKLR1 Small Molecule Antagonist Suppresses CNS Autoimmune Inflammatory Disease” (PLoS ONE, 2014).
Read-outs that look alike come from different tables or passages of the source.

Assays:
[1] = target: Choline acetyltransferase; conditions: Purified enzyme; ref Sastry et al., 1988a; cited from earlier work
C57BL/6 mice [2] = test: Preliminary in vivo toxicity, daily s.c. dosing for 16 days; set-up: species or system mouse; conditions: s.c. daily for 16 days, doses up to at least 10 mg/kg per day
Text: Given the lack of adverse reactions in vivo, we next sought to test α-NETA for in vivo efficacy in the EAE model of MS.
The mice were then euthanized and vital organs weighed. Each symbol represents an individual mouse, and the bars indicate mean ± SEM, n = 3 mice per group. […] Control mice received either captisol vehicle or no treatment. […] For days 1–15, n = 52 mice per group; for days 16–27, n = 24–25 mice per group. * p<0.05 by Mann-Whitney U test.

[3] = system: Marburg virus binding/entry; conditions: Cell-based; ref PubChem, 2014b; cited from earlier work
mCMKLR1 = target: T1, mCMKLR1 (Mus musculus, UniProt P97468); test: Transwell chemotaxis of mCMKLR1/L1.2 transfectants to chemerin
T1 sequence (P97468 1-371): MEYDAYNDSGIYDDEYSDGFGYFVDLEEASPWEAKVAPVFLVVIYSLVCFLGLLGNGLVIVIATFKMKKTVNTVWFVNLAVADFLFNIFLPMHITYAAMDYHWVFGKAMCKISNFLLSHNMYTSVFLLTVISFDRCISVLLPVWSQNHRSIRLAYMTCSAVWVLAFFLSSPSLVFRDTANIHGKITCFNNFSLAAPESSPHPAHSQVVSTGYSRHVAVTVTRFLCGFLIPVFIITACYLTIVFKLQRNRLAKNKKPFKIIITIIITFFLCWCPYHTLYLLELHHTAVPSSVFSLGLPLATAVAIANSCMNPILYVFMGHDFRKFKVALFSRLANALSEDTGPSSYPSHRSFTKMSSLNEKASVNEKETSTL

[4] = within 5 min; depending on the temperature of incubation
CXCR5 = CXCR5 (Homo sapiens, UniProt P32302); test: Transwell chemotaxis of CXCR5+ NC-37 cells to CXCL13
CXCR4 = CXCR4 (Homo sapiens, UniProt P61073); test: Transwell chemotaxis of CXCR4+ U937 cells to CXCL12
Vitamin D receptor = target: Vitamin D receptor; set-up: method as in PubChem, 2014a; conditions: Purified protein (binding); ref PubChem, 2014a; cited from earlier work
[5] = target: Tyrosyl-DNA phosphodiesterase 1 + camptothecin; set-up: method as in PubChem, 2014a; conditions: Cell-based (process); ref PubChem, 2014a; cited from earlier work
[6] = target: G9a histone lysine methyltransferase; set-up: method as in PubChem, 2014b; ref 23; conditions: Purified enzyme; ref PubChem, 2014b; cited from earlier work
CCRL2 KO mice = test: EAE induced by active immunization in CCRL2 KO mice; assay type: in vivo, mouse
DNA re-replication = system: DNA re-replication; set-up: method as in PubChem, 2014b; conditions: Cell-based (process); ref PubChem, 2014b; read-out: Agonist activity, EC50 (µM), DNA re-replication; cited from earlier work
Cytochrome p450 3A4 = conditions: cited from earlier work
GPR1 = GPR1 (Homo sapiens, UniProt P46091); test: β-arrestin2 (β-ARR2) assay, GPR1/CHO cells, chemerin-stimulated
C57BL/6 mice [7] = test: Recall proliferation and cytokine (ELISA) responses of LN and spleen cells from treated MOG35-55/CFA-immunized mice; conditions: in vivo treatment over a 10-day period; 72 h restimulation
[8] = mouse
C57BL/6 mice [9] = test: EAE induced by adoptive transfer of MOG-reactive lymphocytes in C57BL/6 mice; assay type: in vivo, mouse
[10] = target: Bacillus subtilis Sfp phosphopantetheinyl transferase; set-up: method as in PubChem, 2014a; conditions: Purified enzyme; ref PubChem, 2014a; cited from earlier work
CCR9 = CCR9 (Homo sapiens, UniProt P51686); test: Transwell chemotaxis of CCR9+ MOLT-4 cells to CCL25
p53 mutants = system: p53 mutants; set-up: method as in PubChem, 2014a; conditions: Cell-based (process); ref PubChem, 2014a; cited from earlier work
[11] = target: 15-Hydroxyprostaglandin dehydrogenase; set-up: method as in PubChem, 2014b; conditions: Purified enzyme; ref PubChem, 2014b; cited from earlier work

Chain of CCR9 (P51686 whole entry): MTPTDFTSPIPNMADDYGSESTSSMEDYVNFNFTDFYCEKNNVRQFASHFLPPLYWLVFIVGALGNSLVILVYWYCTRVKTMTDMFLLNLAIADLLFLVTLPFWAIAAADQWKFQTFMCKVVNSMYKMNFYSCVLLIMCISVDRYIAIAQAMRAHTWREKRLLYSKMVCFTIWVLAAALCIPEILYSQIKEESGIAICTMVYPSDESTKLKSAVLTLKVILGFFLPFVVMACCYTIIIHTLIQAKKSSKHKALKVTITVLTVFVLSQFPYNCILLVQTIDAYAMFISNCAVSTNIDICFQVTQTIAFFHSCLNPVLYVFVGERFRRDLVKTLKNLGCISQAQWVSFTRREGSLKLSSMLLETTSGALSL
Chain of CXCR5 (P32302 whole entry): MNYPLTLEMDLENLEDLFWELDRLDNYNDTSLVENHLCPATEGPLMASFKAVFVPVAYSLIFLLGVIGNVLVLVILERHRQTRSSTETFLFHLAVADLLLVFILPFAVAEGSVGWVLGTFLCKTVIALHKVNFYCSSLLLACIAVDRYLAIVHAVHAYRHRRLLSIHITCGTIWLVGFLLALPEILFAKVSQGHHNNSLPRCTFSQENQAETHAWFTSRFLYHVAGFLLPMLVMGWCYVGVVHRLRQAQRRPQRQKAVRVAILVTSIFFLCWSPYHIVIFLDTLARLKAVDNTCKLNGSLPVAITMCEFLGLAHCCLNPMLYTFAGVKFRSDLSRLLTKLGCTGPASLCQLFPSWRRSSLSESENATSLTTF
Chain of CXCR4 (P61073 whole entry): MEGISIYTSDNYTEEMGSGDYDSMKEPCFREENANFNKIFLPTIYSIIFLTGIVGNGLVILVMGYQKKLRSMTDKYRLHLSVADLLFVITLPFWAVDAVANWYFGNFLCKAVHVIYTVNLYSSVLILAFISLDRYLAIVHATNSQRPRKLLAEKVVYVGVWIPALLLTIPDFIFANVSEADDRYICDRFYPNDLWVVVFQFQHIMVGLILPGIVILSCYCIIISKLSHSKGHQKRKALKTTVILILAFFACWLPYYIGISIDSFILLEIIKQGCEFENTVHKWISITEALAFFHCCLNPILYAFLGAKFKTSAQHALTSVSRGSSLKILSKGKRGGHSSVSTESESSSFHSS
Chain of GPR1 (P46091 whole entry, species assumed): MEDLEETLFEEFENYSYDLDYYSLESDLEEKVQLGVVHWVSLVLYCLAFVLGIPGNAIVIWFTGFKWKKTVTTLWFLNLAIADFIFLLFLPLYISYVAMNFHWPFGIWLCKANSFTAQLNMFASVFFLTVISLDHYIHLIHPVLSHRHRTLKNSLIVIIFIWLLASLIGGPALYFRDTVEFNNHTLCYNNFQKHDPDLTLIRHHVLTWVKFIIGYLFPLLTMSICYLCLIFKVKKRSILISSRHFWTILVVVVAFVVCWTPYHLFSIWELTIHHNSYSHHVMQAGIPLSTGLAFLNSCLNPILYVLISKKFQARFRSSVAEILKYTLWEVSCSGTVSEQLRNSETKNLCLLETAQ

In the case of `C[N+](C)(C)CCC(=O)c1cccc2ccccc12.[I-]` [α-NETA, 2-(α-naphthoyl)ethyltrimethylammonium iodide], the IC50 [1] is given as 9 µM, the “in vivo tolerability (survival, weight gain, appearance, behavior, organ wet weight)” value (C57BL/6 mice [2]) is given as “well tolerated” and the IC50 [3] is given as 4.5 µM. For the same molecule, the IC50 (mCMKLR1) was 5 ± 0.4 µM, the “parent compound no longer detectable by mass spectrometry after dissolution in 10% captisol” value [4] was 40–60% and the IC50 (CXCR5) was ≥ 10 µM. The “inhibition of migration of CXCR5+ NC-37 cells to CXCL13” value (CXCR5; 1, 3, and 10 µM) was “did not inhibit”, the IC50 (CXCR4) was ≥ 10 µM and the “inhibition of migration of CXCR4+ cells to CXCL12” value (CXCR4; 1, 3, and 10 µM) was “did not inhibit”. The IC50 (Vitamin D receptor) was 2 µM, the IC50 [5] was 0.58 µM and the IC50 [6] was 0.5 µM. The “suppression of clinical signs beyond first appearance of disease in control CCRL2 KO mice” value (CCRL2 KO mice; 10 mg/kg daily s.c.) was “completely and significantly suppressed clinical signs for an average of four days”, the “treated mice that did not develop EAE by day 20” value (CCRL2 KO mice; CCRL2 KO mice, 10 mg/kg daily s.c.) was 40% and the “severity of clinical disease” value (CCRL2 KO mice; CCRL2 KO mice, days 8-15 (except for day 10)) was “significantly reduced”. For the same molecule, the EC50 (DNA re-replication) was 1.8 µM, the IC50 (Cytochrome p450 3A4) was 0.2 µM and the IC50 (GPR1) was 3.4 µM. The “fold less potent against GPR1 compared to activity against CMKLR1” value (GPR1; β-arrestin2 assay) was 10 fold, the “MOG35-55 recall proliferation and IFNγ and IL-17 production of LN and spleen cells” value (C57BL/6 mice [7]) was “comparable to vehicle-treated mice” and the “detection of parent compound after in vivo dosing” value ([8]; iv, 0.5 mg/kg) was “unable to detect any of the parent compound”. For the same molecule, the “detection of parent compound after in vivo dosing” value ([8]; sc, 10 mg/kg) was “unable to detect any of the parent compound”, the “suppression of clinical signs beyond first appearance of disease in control mice” value (C57BL/6 mice [9]; 10 mg/kg daily s.c.) was “completely suppressed clinical signs for an average of six days” and the “severity of clinical disease” value (C57BL/6 mice [9]; 10 mg/kg daily s.c., day 15–19) was “significantly reduced”. For the same molecule, the “reduction of the incidence of EAE by day 24” value (C57BL/6 mice [9]; 10 mg/kg daily s.c., did not reach statistical significance) was ~25%, the “ability of MOG-reactive lymphocytes from treated donor mice to induce EAE by passive transfer” value (C57BL/6 mice [9]; donor mice treated once daily for ten days) was “fully capable of inducing EAE by passive transfer” and the IC50 [10] was 18 µM. The IC50 (CCR9) was ≥ 10 µM, the “inhibition of migration of CCR9+ MOLT4 cells to CCL25” value (CCR9; 1, 3, and 10 µM) was “did not inhibit” and the IC50 (p53 mutants) was 13 µM. For the same molecule, the IC50 [11] was 14 µM.
